Measurements: ChEMBL document CHEMBL5291721, “A preclinical secondary pharmacology resource illuminates target-adverse drug reaction associations of marketed drugs” (Nat Commun, 2023)

Tests used:
D(1A) dopamine receptor [1] = target: T1, D(1A) dopamine receptor (Homo sapiens, UniProt P21728)
[2] = target: Prostaglandin G/H synthase 1 (Homo sapiens, UniProt P23219); format: functional
[3] = target: Beta-2 adrenergic receptor (Homo sapiens, UniProt P07550)
B2 bradykinin receptor = target: T2, B2 bradykinin receptor (Homo sapiens, UniProt P30411)
T2 sequence (P30411 whole entry): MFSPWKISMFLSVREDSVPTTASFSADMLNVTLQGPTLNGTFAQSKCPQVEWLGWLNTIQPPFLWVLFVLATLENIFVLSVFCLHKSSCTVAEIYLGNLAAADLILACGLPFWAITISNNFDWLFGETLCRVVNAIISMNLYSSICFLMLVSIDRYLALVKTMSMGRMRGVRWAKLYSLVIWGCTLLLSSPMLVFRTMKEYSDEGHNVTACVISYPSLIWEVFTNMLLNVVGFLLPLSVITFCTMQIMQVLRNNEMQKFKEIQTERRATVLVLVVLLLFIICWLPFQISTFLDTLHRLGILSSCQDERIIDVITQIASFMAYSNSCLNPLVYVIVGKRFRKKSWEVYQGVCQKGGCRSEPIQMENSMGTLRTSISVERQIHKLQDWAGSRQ

[4] = target: T3, Muscarinic acetylcholine receptor M2 (Homo sapiens, UniProt P08172); format: functional, cell-based
T3 sequence (P08172 whole entry): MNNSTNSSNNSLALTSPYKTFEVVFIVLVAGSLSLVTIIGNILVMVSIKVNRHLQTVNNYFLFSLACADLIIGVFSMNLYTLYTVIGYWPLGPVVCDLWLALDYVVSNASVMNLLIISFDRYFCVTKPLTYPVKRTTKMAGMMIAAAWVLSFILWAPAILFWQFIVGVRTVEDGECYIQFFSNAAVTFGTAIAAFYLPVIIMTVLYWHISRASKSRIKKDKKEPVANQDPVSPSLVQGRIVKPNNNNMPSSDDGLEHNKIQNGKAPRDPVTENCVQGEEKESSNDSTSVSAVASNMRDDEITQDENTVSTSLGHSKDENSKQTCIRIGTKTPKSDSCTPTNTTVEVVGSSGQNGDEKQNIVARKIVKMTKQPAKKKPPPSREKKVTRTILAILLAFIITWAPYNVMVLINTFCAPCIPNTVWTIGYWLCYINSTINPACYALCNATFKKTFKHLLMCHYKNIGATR

D(1A) dopamine receptor [5] = target: T1, D(1A) dopamine receptor; format: functional, cell-based
[6] = target: Glutamate receptor ionotropic, NMDA 1 (Rattus norvegicus, UniProt P35439)
[7] = target: Kappa-type opioid receptor (Homo sapiens, UniProt P41145)
[8] = target: T4, Equilibrative nucleoside transporter 1 (Homo sapiens, UniProt Q99808)
T4 sequence (Q99808 whole entry): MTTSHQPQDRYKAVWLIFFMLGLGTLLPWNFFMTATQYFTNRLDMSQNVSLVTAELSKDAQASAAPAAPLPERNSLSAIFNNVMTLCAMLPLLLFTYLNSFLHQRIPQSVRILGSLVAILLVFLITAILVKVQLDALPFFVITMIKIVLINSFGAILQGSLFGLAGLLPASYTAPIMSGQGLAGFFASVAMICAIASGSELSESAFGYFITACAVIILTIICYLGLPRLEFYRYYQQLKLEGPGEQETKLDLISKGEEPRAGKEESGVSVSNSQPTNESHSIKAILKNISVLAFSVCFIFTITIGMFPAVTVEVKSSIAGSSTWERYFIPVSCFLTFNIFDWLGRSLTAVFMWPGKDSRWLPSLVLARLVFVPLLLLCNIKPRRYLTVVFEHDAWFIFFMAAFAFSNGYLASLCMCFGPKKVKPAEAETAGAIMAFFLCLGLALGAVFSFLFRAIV

[9] = target: T5, Amine oxidase [flavin-containing] A (Homo sapiens, UniProt P21397); format: functional
T5 sequence (P21397 whole entry): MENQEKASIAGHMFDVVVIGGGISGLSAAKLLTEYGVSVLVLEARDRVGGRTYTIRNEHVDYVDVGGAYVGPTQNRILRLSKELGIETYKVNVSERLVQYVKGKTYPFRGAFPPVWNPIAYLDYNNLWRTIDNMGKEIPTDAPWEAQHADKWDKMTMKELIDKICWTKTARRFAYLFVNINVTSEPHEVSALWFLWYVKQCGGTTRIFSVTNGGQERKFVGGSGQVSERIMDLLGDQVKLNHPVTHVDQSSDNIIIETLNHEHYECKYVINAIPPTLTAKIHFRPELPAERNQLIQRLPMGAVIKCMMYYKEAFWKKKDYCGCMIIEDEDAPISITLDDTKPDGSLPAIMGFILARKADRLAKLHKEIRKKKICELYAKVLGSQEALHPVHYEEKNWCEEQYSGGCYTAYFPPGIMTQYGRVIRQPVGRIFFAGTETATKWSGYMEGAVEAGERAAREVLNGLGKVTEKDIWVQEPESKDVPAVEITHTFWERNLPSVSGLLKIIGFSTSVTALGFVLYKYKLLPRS

[10] = target: T6, Alpha-1A adrenergic receptor (Homo sapiens, UniProt P35348); format: functional, cell-based
T6 sequence (P35348 whole entry): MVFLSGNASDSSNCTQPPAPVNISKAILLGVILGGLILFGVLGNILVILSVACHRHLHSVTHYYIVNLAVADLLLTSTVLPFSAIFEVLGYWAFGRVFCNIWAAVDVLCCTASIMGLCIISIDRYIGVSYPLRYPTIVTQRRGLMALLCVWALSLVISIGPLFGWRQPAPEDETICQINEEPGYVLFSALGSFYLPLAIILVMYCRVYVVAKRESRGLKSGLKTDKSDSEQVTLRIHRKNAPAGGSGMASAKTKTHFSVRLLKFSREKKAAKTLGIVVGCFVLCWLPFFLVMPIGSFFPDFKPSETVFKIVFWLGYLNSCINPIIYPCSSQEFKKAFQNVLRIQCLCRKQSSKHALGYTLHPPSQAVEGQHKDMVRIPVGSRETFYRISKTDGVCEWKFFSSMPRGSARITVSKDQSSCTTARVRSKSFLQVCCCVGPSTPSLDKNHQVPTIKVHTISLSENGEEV

Histamine H3 receptor = Histamine H3 receptor (Homo sapiens, UniProt Q9Y5N1)
Further: assay procedure not described here.

T1 sequence (P21728 whole entry): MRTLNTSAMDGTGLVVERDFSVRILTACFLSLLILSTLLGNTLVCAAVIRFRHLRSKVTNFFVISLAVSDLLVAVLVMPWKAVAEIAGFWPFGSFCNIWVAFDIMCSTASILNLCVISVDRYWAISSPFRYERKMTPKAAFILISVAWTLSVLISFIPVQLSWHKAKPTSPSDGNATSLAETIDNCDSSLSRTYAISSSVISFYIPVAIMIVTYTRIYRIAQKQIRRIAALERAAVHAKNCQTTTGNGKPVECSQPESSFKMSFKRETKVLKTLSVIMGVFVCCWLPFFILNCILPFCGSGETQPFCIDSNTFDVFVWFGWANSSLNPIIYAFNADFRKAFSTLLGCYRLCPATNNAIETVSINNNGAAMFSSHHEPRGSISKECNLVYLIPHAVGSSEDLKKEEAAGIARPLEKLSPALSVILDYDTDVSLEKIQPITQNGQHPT
Sequence of Histamine H3 receptor (Q9Y5N1 whole entry): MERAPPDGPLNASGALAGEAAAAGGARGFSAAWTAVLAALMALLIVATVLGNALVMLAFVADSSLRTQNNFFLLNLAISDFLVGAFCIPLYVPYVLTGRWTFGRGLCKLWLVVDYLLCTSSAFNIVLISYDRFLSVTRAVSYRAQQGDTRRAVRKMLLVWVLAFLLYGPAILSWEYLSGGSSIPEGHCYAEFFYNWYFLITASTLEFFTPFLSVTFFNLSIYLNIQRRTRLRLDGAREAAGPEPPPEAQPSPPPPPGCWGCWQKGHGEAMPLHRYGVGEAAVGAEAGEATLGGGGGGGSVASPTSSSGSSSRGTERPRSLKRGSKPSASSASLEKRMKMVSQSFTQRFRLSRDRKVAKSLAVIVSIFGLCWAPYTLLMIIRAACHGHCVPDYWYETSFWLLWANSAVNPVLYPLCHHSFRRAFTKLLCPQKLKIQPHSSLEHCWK
Sequence of Beta-2 adrenergic receptor (P07550 whole entry): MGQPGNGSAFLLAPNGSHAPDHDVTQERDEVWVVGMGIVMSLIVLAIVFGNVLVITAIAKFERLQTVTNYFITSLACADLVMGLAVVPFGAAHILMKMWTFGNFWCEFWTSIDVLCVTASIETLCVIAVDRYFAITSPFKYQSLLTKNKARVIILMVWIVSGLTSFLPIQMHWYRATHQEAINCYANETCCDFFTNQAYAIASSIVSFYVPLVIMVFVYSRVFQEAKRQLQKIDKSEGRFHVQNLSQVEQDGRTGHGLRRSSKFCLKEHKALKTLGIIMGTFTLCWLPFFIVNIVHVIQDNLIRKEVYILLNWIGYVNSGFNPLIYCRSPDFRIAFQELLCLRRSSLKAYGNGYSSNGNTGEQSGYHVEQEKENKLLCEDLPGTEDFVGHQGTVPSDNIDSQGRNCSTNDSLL
Sequence of Kappa-type opioid receptor (P41145 whole entry): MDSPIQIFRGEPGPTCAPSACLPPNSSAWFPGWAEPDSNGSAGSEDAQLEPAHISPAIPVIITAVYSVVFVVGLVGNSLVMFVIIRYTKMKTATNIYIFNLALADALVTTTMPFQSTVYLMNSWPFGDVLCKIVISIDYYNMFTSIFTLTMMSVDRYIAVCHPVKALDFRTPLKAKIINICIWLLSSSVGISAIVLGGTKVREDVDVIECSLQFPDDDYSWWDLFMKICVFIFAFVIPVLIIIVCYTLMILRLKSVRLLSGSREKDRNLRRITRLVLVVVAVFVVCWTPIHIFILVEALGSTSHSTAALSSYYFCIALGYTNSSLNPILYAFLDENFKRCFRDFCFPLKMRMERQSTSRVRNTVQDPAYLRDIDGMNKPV
Sequence of Prostaglandin G/H synthase 1 (P23219 whole entry): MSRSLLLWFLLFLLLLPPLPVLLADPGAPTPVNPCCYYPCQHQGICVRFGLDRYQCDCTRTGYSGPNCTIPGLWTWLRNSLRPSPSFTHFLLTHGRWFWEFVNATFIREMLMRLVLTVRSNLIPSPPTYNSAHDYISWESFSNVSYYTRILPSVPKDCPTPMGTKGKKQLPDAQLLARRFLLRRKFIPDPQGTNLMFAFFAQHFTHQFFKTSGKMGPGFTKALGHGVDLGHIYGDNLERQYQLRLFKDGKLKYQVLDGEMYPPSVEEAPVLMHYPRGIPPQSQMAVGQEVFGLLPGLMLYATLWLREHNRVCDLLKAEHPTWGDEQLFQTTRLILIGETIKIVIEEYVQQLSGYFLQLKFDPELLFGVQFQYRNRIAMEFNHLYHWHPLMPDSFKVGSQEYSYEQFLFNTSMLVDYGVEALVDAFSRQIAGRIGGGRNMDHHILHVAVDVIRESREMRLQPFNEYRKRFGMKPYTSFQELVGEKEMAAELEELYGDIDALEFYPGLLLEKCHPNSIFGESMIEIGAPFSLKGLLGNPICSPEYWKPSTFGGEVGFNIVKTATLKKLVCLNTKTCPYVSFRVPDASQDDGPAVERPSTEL

Compound	AC50 (D(1A) dopamine receptor [1]) [µM]	AC50 [2] [µM]	AC50 [3] [µM]	AC50 (B2 bradykinin receptor) [µM]	AC50 [4] [µM]	AC50 (D(1A) dopamine receptor [5]) [µM]	AC50 [6] [µM]	AC50 [7] [µM]	AC50 [8] [µM]	AC50 [9] [µM]	AC50 [10] [µM]	AC50 (Histamine H3 receptor) [µM]
Cc1cc2c(cc1S(N)(=O)=O)S(=O)(=O)CCC2	> 30	> 30	–	–	–	–	–	–	–	–	–	–
C[N+](C)(C)CCOP(=O)([O-])OC[C@H](O)CO	–	–	> 30	> 30	> 30	> 30	> 30	> 30	> 30	> 30	> 30	> 30
C[C@H](N[C@@H](CCc1ccccc1)C(=O)O)C(=O)N1Cc2ccccc2C[C@H]1C(=O)O	> 30	> 30	–	–	–	–	–	–	–	–	–	–
O=C(O)[C@@H]1C[C@@H](O)CN1	> 30	> 30	–	–	–	–	–	–	–	–	–	–
CC1(C)S[C@@H]2[C@H](/N=C/N3CCCCCC3)C(=O)N2[C@H]1C(=O)O [AMDINOCILLIN]	> 30	14.5	–	–	–	–	–	–	–	–	–	–
CC(=O)[C@]1(N)Cc2c(O)c3c(c(O)c2[C@@H](O[C@H]2C[C@H](O)[C@H](O)CO2)C1)C(=O)c1ccccc1C3=O [AMRUBICIN]	> 30	3.62	–	–	–	–	–	–	–	–	–	–
NC(=O)[C@@H]1CC[C@@H]2CN1C(=O)N2OS(=O)(=O)O [AVIBACTAM]	> 30	> 30	–	–	–	–	–	–	–	–	–	–
CC(=O)OC[C@H]1O[C@@H](n2ncc(=O)[nH]c2=O)[C@H](OC(C)=O)[C@@H]1OC(C)=O [AZARIBINE]	–	> 30	–	–	–	–	–	–	–	–	–	–
CC1=C(C(=O)OC(C)C)C(c2cccc([N+](=O)[O-])c2)C(C(=O)OC2CN(C(c3ccccc3)c3ccccc3)C2)=C(N)N1 (stereo not given) [AZELNIDIPINE]	–	–	> 30	> 10	> 30	> 30	> 30	> 30	> 30	> 30	26	> 30
CC(C)(Oc1ccc(CCNC(=O)c2ccc(Cl)cc2)cc1)C(=O)O [BEZAFIBRATE]	–	–	> 10	> 10	> 10	> 10	> 10	> 10	> 10	> 10	> 30	> 10
CC(C)(C)NC(=O)N[C@H](C(=O)N1C[C@H]2[C@@H]([C@H]1C(=O)NC(CC1CCC1)C(=O)C(N)=O)C2(C)C)C(C)(C)C (stereo not given in full) [BOCEPREVIR]	> 30	> 30	–	–	–	–	–	–	–	–	–	–
O=C(O)COCCN1CCN(C(c2ccccc2)c2ccc(Cl)cc2)CC1 (stereo not given) [CETIRIZINE]	–	–	> 10	> 30	–	–	> 10	> 10	> 30	> 10	> 30	> 10
CN[C@]1(c2ccccc2Cl)CCCCC1=O [ESKETAMINE]	–	–	> 30	> 30	> 30	> 30	0.79	13	> 30	> 30	> 30	> 30
CN(C)CCCN1c2ccccc2CCc2ccccc21 [IMIPRAMINE]	–	–	> 10	> 30	> 10	> 10	–	–	> 30	> 10	0.41	> 10
CCOC(=O)C1=C(C)NC(C)=C(C(=O)OCC)C1c1ccccc1/C=C/C(=O)OC(C)(C)C [LACIDIPINE]	–	–	> 30	> 30	> 30	> 30	> 30	8.6	> 30	> 30	> 30	> 30
COC(=O)C1=C(C)NC(C)=C(C(=O)OCCN2CCN(C(c3ccccc3)c3ccccc3)CC2)C1c1cccc([N+](=O)[O-])c1 (stereo not given) [MANIDIPINE 6300]	–	–	> 30	> 30	> 30	> 30	> 30	7.9	> 30	> 30	> 30	> 30
CN(Cc1cnc2nc(N)nc(N)c2n1)c1ccc(C(=O)N[C@@H](CCC(=O)O)C(=O)O)cc1 [METHOTREXATE]	–	–	> 10	> 30	> 10	> 10	> 10	> 10	> 30	> 10	> 30	> 10
O=C1c2cccc3c2[C@H](CCC3)CN1[C@@H]1CN2CCC1CC2 [PALONOSETRON]	–	–	> 30	> 30	> 30	> 30	> 30	> 30	> 30	> 30	29	> 30
O=C1c2ccccc2C(=O)C1c1ccccc1 [PHENINDIONE]	–	–	> 10	> 10	> 10	> 10	> 10	> 10	> 10	> 10	> 30	> 10
Cc1cccc(C)c1NC(=O)CC12CCCN1CCC2 [PILSICAINIDE]	–	–	> 30	> 30	> 30	> 30	> 30	> 30	> 30	> 30	> 30	> 30
C[C@]12CCC(=O)C[C@@H]1CC[C@@H]1[C@@H]2CC[C@]2(C)[C@@H](O)CC[C@@H]12 [STANOLONE]	–	–	> 30	> 30	> 30	> 30	> 30	> 30	> 30	> 30	> 30	> 30
C[C@]12C=CC(=O)C=C1CC[C@@H]1[C@@H]2CC[C@]2(C)OC(=O)CC[C@@H]12 [TESTOLACTONE]	–	–	> 10	> 10	> 10	> 10	> 10	> 10	> 10	> 10	> 30	–
